Activity calls are given as the source filed them.
Experiments:
Type in all cases: functional, cell-based
HeLa = assay: Cytotoxicity against human HeLa cells at 50 uM after 90 mins by MTS assay
A549 = assay: Cytotoxicity against human A549 cells at 50 uM after 90 mins by MTS assay
MCF7 = assay: Cytotoxicity against human MCF7 cells at 50 uM after 90 mins by MTS assay
HCT-116 = assay: Cytotoxicity against human HCT116 cells at 50 uM after 90 mins by MTS assay
SW480 = assay: Cytotoxicity against human SW480 cells at 50 uM after 90 mins by MTS assay
T-24 = assay: Cytotoxicity against human T24 cells at 50 uM after 90 mins by MTS assay

Measured: Activity

COc1cc2c3c4c(c(O)cc(C)c14)C(=O)O[C@@H]3[C@@H]1C[C@@H](C)O[C@]1(C[C@H]1CCC(=O)O1)O2
inactive: all assays above

Source: ChEMBL document CHEMBL3588825, “Identification of Oxaphenalenone Ketals from the Ascomycete Fungus Neonectria sp” (J Nat Prod, 2015)
